Test [1] deals with experimental mouse models of autoimmune diseases. Particulars: in the three mouse models; cited from earlier work.
The test system of another test is lupus prone mice. The following applies: subcutaneous (5 μg/mouse) and oral (50 μg/mouse and 250 μg/mouse) administration; cited from earlier work.
Test [2] has as its system THP-1 human monocyte cell line polarized to M1 macrophages. In words: IL-10 secretion by THP-1-derived M1 macrophages. Particulars: THP-1 M0 (100 ng/ml PMA 48 hours) polarized to M1 with 10 ng/ml LPS; TPC 400 ug/ml, dexamethasone 1 uM, IL-4 and IL-13 20 ng/ml; versus PBS control. Type of test: cell-based. As to the method:
FIG. 2: TPC enhances the anti-inflammatory effect of steroids. A bar graph showing the effect of IL-4/IL-13, TPC, dexamethasone and dexamethasone+TPC on IL-10 secretion by macrophages. *-P<0.05, **-P<0.01
To test the hypothesis that a combination of steroids and TPC will have a beneficial effect on treating inflammation, cells of the THP-1 human monocyte cell line were differentiated to M0 macrophages with 100 ng/ml PMA for 48 hours and then polarized to M1 macrophages with 10 ng/ml LPS. These cells were then tested with the following compounds: PBS (negative control), IL-4 and IL-13 (20 ng/ml, positive control as they induce the cells to a M2 phenotype), TPC (400 ug/ml), dexamethasone (1 uM), and a combination of dexamethasone (1 uM) and TPC (400 ug/ml). […] Further, since TPC itself reduces pro-inflammatory cytokine secretion as well, it may be used, not just in combination, but to reduce the total dose of steroid administered.

In test [3] the test system is mice with collagen-induced arthritis. Particulars: subcutaneous (5 μg/mouse) and oral (50 μg/mouse and 250 μg/mouse) administration; cited from earlier work.
The subject of a further test is anti-CD3-activated PBMCs. Description: Effects of TPC on cytokine secretion by anti-CD3-activated PBMCs (Luminex). In kind it is cell-based. As to the method:
FIGS. 1A-1B: Very low dose TPC has a strong immunomodulatory effect. Bar graphs showing the effects of TPC at a range of doses, on anti-CD3-activated PBMCs 48 h after treatment. Secretion of pro-inflammatory cytokine TNFα (1A) and anti-inflammatory cytokine IL-10 (1B) are shown. Column statistics, one-sample t test compared to a hypothetical value of 100 was used. *-P<0.05, **-P<0.01, ***-P<0.005
The immunomodulatory effect of TPC was determined in vitro on PBMCs from healthy donors. PBMCs were harvested and allowed to adhere to culture plates. TPC at various concentrations, or PBS or dexamethasone as controls were then added and an hour later anti-CD3 stimulating antibody was added to induce an inflammatory state. 48 hours later the supernatant was harvested from the cells and cytokine levels were assayed using standard Luminex protocols. Levels of cytokine induction was interpolated from standard curves, using 5-parameter non-linear regression analyses, where y=(A+((B−A)/(1+(((B−E)/(E−A))*((x/C)^D))))). The interpolated data was then normalized to vehicle controls (anti-CD3 stimulation alone). […] Once again, the effect was greatest at very low doses, as the 0.005 μg/ml TPC dose had the strongest effect causing a 33% increase in IL-10 levels. […] (FIG. 1B).

Test [4] relates to mice with dextran sodium sulfate induced colitis. Particulars: subcutaneous (5 μg/mouse) and oral (50 μg/mouse and 250 μg/mouse) administration; cited from earlier work.
Setting [5] is: 0.005 μg/ml TPC, PBMCs from healthy donors, anti-CD3 stimulation, supernatant at 48 hours, normalized to vehicle control (anti-CD3 alone).

Regarding Tuftsin-PhosphorylCholine [TPC], in test [1], the “T and B regulatory cells” value was “enhanced expansion”; the “anti-inflammatory IL-10” value is on record as “increased”; the “proinflammatory cytokine expression such as IL-6, IL-17, TNFα, IFNγ” value is given as “inhibited”. Moreover, the glomerulonephritis onset result in the test with lupus prone mice is “prevented”. The IL-10 expression entry in test [2] is “strong increase”. In addition, the joint damage entry in test [3] is on record as “prevented”. In the test on anti-CD3-activated PBMCs (setting [5]), the “increase in IL-10 levels” value was found to be 33% and the “lowering of TNFα levels” value came out at 41%. In addition, the “increase on IL-10 secretion as compared to dexamethasone” value in the test with anti-CD3-activated PBMCs (anti-CD3-activated PBMCs, 48 hours, TPC relative to dexamethasone) came out at 220%. The colitis result in test [4] is on record as “reduced”.

(Values after patent publication US20250375529A1, “PHOSPHORYLCHOLINE-TUFTSIN CONJUGATE FOR TREATING OCULAR INFLAMMATION” (TARSIER PHARMA LTD., priority 2017, published 2025).)
